For 19 compounds, TGI results are on record in PubChem BioAssay (NCI).

Common to all, as to test: DTP human tumour cell line panel, 48 h
Assay [1] deals with PC-3 prostate.
The subject of assay [2] is CCRF-CEM leukemia.
The test system of assay [3] is SF-295 CNS.
The subject of assay [4] is ACHN renal.
In assay [5] the test system is NCI-H23 lung.
The subject of assay [6] is M14 melanoma.
The test system of assay [7] is A498 renal.
Assay [8] relates to OVCAR-4 ovarian.
Assay [9] deals with LOX IMVI melanoma.
The test system of assay [10] is RXF 393 renal.
Assay [11] concerns DU-145 prostate.
For assay [12], the system named is HOP-62 NSCLC.
Assay [13] concerns 786-0 renal.
Assay [14] relates to SR leukemia.
Assay [15] has as its system UACC-62 melanoma.

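Briefly, cells in 96-well plates were exposed to five compound concentrations for 48 h, and endpoints were estimated by linear interpolation. TGI: total growth inhibition.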

For the compound `CSCCCNC(=O)[C@H](CSC)NC(=O)c1csc(CCNC(=O)[C@@H](NSc2ccccc2[N+](=O)[O-])C(C)O)n1` (some centres not stated), the TGI in assay [1], in assay [2], in assay [3], in assay [4], in assay [5] and in assay [6] was more than 100 µM throughout. The total growth inhibition concentration (TGI) in assay [7], in assay [8], in assay [9], in assay [10], in [11] and in assay [12] was more than 100 µM in each case. The TGI in assay [13], in [14] and in [15] was more than 100 µM each time.

`COc1ccc(CNc2nc3ccccc3nc2C(=O)O)cc1`: the TGI in assay [1], in assay [2], in assay [3], in assay [5], in assay [6] and in assay [7] was more than 100 µM throughout. Also, the TGI in assay [9], in assay [10], in assay [11], in [12], in assay [13] and in assay [14] was more than 100 µM throughout. For the same compound, the concentration for total growth inhibition (TGI) in assay [15] is more than 100 µM.

Turning to `CN1CCN([C@H]2C[C@H]3[C@@H]4CC=C5C[C@@H](O)CC[C@]5(C)[C@H]4CC[C@]3(C)[C@H]2O)CC1`, the total growth inhibition concentration (TGI) in assay [1] was more than 86.6 µM; in assay [2], 57.1 µM; in assay [3], more than 100 µM; in assay [4] it was more than 100 µM; in assay [5], more than 100 µM; in [6], 33.9 µM. For the same compound, the TGI is more than 100 µM in [7]; more than 56.6 µM in [8]; more than 57.3 µM in assay [9]; 51.9 µM in assay [10]; more than 100 µM in assay [11]; more than 100 µM in assay [12]. Further, the figures for the TGI in [13], in [14] and in assay [15] were 32.1 µM, 53.3 µM and more than 60.5 µM, respectively.

`c1cc2c(cc1C1=NCCN1)c1cc(C3=NCCN3)ccc1n2CC1CCCCC1`: the TGI in assay [1] was more than 100 µM; in assay [2] it was 50.2 µM; in [3], more than 100 µM; in assay [4], more than 100 µM; in assay [5], 88.9 µM; in assay [6], more than 100 µM. The TGI is more than 100 µM in [7]; more than 100 µM in assay [8]; 39.7 µM in assay [9]; more than 100 µM in assay [10]; 77.1 µM in assay [11]; 94.8 µM in assay [12]. For the same compound, the TGI in assay [13] was 96.4 µM; in assay [14], 38.6 µM.

With `CCOC(=O)CCC(NC(=O)c1ccc(Nc2nc3ccccc3nc2C(=O)OCC)cc1)C(=O)OCC` (configuration not stated), the TGI is more than 100 µM in [1]; more than 100 µM in [2]; 23 µM in [3]; 11.5 µM in assay [4]; 17.8 µM in assay [5]; more than 100 µM in assay [6]. The total growth inhibition concentration (TGI) in assay [7] was 18.6 µM; in assay [8], 3.91 µM; in assay [9] it was more than 41.5 µM; in assay [11], more than 35.8 µM; in assay [12], 12.4 µM; in assay [13], 3.46 µM. For the same compound, the TGI was more than 100 µM in [14] and 9.15 µM in assay [15].

Consider `NN/C(=N\S(=O)(=O)c1ccc(S(=O)(=O)c2ccccc2)s1)Nc1ccc(Cl)cc1`, for which the TGI is more than 100 µM in assay [1]; more than 100 µM in assay [3]; more than 100 µM in assay [4]; 80 µM in [5]; 40.1 µM in [6]; more than 100 µM in assay [7]. Besides, the TGI was more than 100 µM in assay [8]; 36.6 µM in assay [9]; 47.6 µM in assay [10]; 76.5 µM in assay [11]; more than 100 µM in assay [12]; 54.2 µM in [13]. In addition, the TGI in assay [14] amounted to 44 µM; in [15], 33.5 µM.

With `COC(=O)c1cc(/C=C\c2cc(OC)ccc2OC)ccc1OC`, the total growth inhibition concentration (TGI) in [1] is more than 100 µM; in assay [2], more than 100 µM; in [3], more than 100 µM; in assay [4], more than 100 µM; in assay [5] it was more than 100 µM; in assay [6], 84.2 µM. For the same compound, the TGI is more than 100 µM in [7]; more than 100 µM in assay [8]; 56.9 µM in assay [9]; more than 100 µM in assay [11]; 77.1 µM in assay [12]; more than 100 µM in assay [13]. The TGI in assay [14] is more than 100 µM; in assay [15], 90.8 µM.

For `NC(=O)Oc1ccccc1`, the TGI in [1], in assay [2], in assay [3], in assay [4], in assay [5] and in [6] was more than 100 µM in each case. Further, the TGI in assay [7], in assay [8], in [9], in assay [10], in assay [11] and in assay [14] was more than 100 µM in each case.

In the case of `CC(C)(C)[Si](C)(C)OC[C@H](/C=C\CCCC(=O)O)NC1(c2ccccc2)c2ccccc2-c2ccccc21`, the TGI in assay [1] is 40.3 µM; in assay [3], more than 100 µM; in [4] it was 49.5 µM; in assay [5], 63.2 µM; in assay [6], 38.8 µM; in assay [7], 32.1 µM. For the same compound, the TGI was more than 100 µM in assay [8]; 25.5 µM in assay [9]; 25 µM in [10]; more than 100 µM in [11]; 42.3 µM in assay [12]; 30.3 µM in [13]. In addition, the TGI came out at 32.3 µM in assay [14] and 36 µM in assay [15].

Turning to `Cc1ccc(/C=C2/N=C(N/N=C\c3ccccc3)NC2=O)cc1`, the TGI was more than 100 µM in assay [1]; more than 100 µM in assay [3]; 38.4 µM in [4]; more than 100 µM in [5]; 85.7 µM in assay [6]; 55.1 µM in assay [8]. In addition, the concentration for total growth inhibition (TGI) in assay [9] was more than 100 µM; in [10], 66 µM; in assay [11] it was more than 100 µM; in assay [12] it was more than 100 µM; in assay [13], 55.6 µM; in [14] it was more than 100 µM.

Consider `Cc1ccc(/C=C2\N=C(N3CCCC(CO)C3)NC2=O)cc1` (configuration not stated), for which the concentration for total growth inhibition (TGI) in assay [1], in assay [2], in assay [3], in assay [4], in [5] and in assay [6] was more than 100 µM each time. For the same compound, the TGI in [8], in assay [9], in [10], in assay [11], in assay [12] and in assay [13] was more than 100 µM throughout. Also, the TGI in assay [14] and in [15] was more than 100 µM each time.

As for `CC(NC(=O)C(Cc1ccc(OC(=O)c2ccccc2)cc1)NC(=O)OC(C)(C)C)C(=O)NCC(=O)NC(Cc1ccccc1)C(=O)NN` (configuration not stated), the TGI in assay [1], in assay [3], in [4], in assay [5], in assay [6] and in assay [7] was more than 100 µM throughout. Besides, the TGI was more than 100 µM in assay [8]; 45 µM in [9]; more than 100 µM in assay [10]; more than 100 µM in assay [11]; more than 100 µM in [12]; more than 100 µM in [13]. Further, the results for the TGI in assay [14] and in assay [15] were 56.9 µM and more than 100 µM, respectively.

Consider `COc1cc(/C=N/NC2=NCCN2)ccc1O`, for which the TGI in assay [1], in assay [2], in [3], in assay [4], in [5] and in [6] was more than 100 µM each time. In addition, the TGI in assay [8], in [9], in assay [10], in [11], in [12] and in [13] was more than 100 µM each time. For the same compound, the TGI in assay [14] and in [15] was more than 100 µM in each case.

With `COc1ccc2c(c1)CCC/C2=N\NS(=O)(=O)c1c(C)cc(C)cc1C`, the total growth inhibition concentration (TGI) in assay [1] is more than 100 µM; in [2] it was 63.7 µM; in [3], 94.6 µM; in assay [4], more than 100 µM; in assay [5], 72.4 µM; in assay [6] it was more than 100 µM. The TGI in [7] is 77 µM; in [8] it was 92.7 µM; in assay [9] it was 43 µM; in assay [11] it was 68.1 µM; in assay [12] it was more than 100 µM; in assay [13] it was 37.8 µM. Also, the TGI in assay [14] was determined as 49.5 µM; in [15] it was 42.6 µM.

Regarding `COc1ccc(-n2cnc3c(NC(Cc4ccccc4)C(=O)O)ncnc32)cc1` (configuration not stated), the TGI in assay [1], in assay [2], in assay [3], in [4], in assay [5] and in [6] was more than 100 µM in each case. For the same compound, the TGI in assay [7], in [8], in [9], in [11], in [12] and in [13] was more than 100 µM throughout. Moreover, the TGI in assay [14] and in assay [15] was more than 100 µM each time.

As to `CC[C@@]1(O)C(=O)OCc2c1cc1n(c2=O)Cc2c-1nc1ccccc1c2/C=N\NC(=O)C(N)Cc1c[nH]c2ccccc12` (some centres not stated), the concentration for total growth inhibition (TGI) is more than 100 µM in assay [1]; 3.44 µM in assay [2]; 4.76 µM in [3]; 0.446 µM in assay [4]; 5.42 µM in assay [5]; 8.77 µM in assay [6]. Moreover, the TGI in assay [7] was 2.76 µM; in assay [8], more than 100 µM; in [9] it was 3.27 µM; in assay [10], 1.21 µM; in assay [11], more than 100 µM; in [13] it was more than 21.7 µM. The TGI in [14] is 1.19 µM; in assay [15], 0.712 µM.

Turning to `O=[N+]([O-])C(C=C(n1nnc2ccccc21)n1nnc2ccccc21)=C(n1nnc2ccccc21)n1nnc2ccccc21`, the TGI in assay [1], in assay [2], in assay [3], in assay [4], in [5] and in assay [6] was more than 100 µM each time. Further, the total growth inhibition concentration (TGI) in assay [7], in [9], in assay [10], in assay [11], in assay [12] and in assay [13] was more than 100 µM each time. Besides, the TGI is 66.6 µM in assay [14] and more than 100 µM in assay [15].

In the case of `COc1ccccc1NC(=S)N/N=C/c1cccc(C)n1`, the TGI in [1] was more than 100 µM; in assay [2], more than 100 µM; in [3] it was more than 100 µM; in assay [4], 25.6 µM; in assay [5] it was more than 100 µM; in assay [6] it was 9.43 µM. In addition, the TGI in assay [7] is 69.7 µM; in [8], more than 100 µM; in assay [9], more than 100 µM; in assay [11], more than 100 µM; in assay [12], more than 62.9 µM; in [13], 96.9 µM. For the same compound, the TGI in assay [14] worked out at 10.4 µM; in [15] it was 15.1 µM.

Turning to `Cc1cc(=O)oc2c(CNC(CC(C)C)C(=O)O)c(O)ccc12` (configuration not stated), the TGI in [1], in assay [3], in assay [4], in assay [5], in assay [6] and in assay [8] was more than 100 µM each time. Further, the TGI in assay [9], in assay [10], in assay [11], in assay [12], in assay [13] and in assay [14] was more than 100 µM each time. This compound gave a TGI in assay [15] of more than 100 µM.
